According to US20020052377A1, “Method for treating angina” (priority 2000, published 2002):
In brackets after ≈: the same amount, converted by molar mass.

Assay: Solubility of ranolazine in aqueous solutions by pH
Format: physicochemical
[1] = Solution pH 7.59 (unbuffered water)

COc1ccccc1OCC(O)CN1CCN(CC(=O)Nc2c(C)cccc2C)CC1 (racemic) [Ranolazine, (±)-N-(2,6-dimethylphenyl)-4-[2-hydroxy-3-(2-methoxyphenoxy)propyl]-1-piperazine-acetamide]
USP Solubility Class (Solution pH 4.81): Freely soluble | USP Solubility Class (Solution pH 4.89): Soluble | USP Solubility Class (Solution pH 4.90): Soluble | USP Solubility Class (Solution pH 5.04): Soluble | USP Solubility Class (Solution pH 5.35): Sparingly soluble | USP Solubility Class (Solution pH 5.82): Slightly soluble | USP Solubility Class (Solution pH 6.46): Slightly soluble | USP Solubility Class (Solution pH 6.73): Very slightly soluble | USP Solubility Class (Solution pH 7.08): Very slightly soluble | USP Solubility Class [1]: Very slightly soluble | solubility [1]: 240 µg/mL (≈ 0.561 mM) | USP Solubility Class (Solution pH 7.73): Very slightly soluble | USP Solubility Class (Solution pH 12.66): Very slightly soluble | solubility (aqueous solution, aqueous buffer, Solution pH 4.81): 161000 µg/mL (≈ 377 mM) | solubility (aqueous solution, aqueous buffer, Solution pH 4.89): 73800 µg/mL (≈ 173 mM) | solubility (aqueous solution, aqueous buffer, Solution pH 5.04): 49400 µg/mL (≈ 116 mM) | solubility (aqueous solution, aqueous buffer, Solution pH 5.35): 16700 µg/mL (≈ 39.1 mM) | solubility (aqueous solution, aqueous buffer, Solution pH 5.82): 5480 µg/mL (≈ 12.8 mM) | solubility (aqueous solution, aqueous buffer, Solution pH 6.46): 1630 µg/mL (≈ 3.81 mM) | solubility (aqueous solution, aqueous buffer, Solution pH 6.73): 830 µg/mL (≈ 1.94 mM) | solubility (aqueous solution, aqueous buffer, Solution pH 7.08): 390 µg/mL (≈ 0.912 mM) | solubility (aqueous solution, aqueous buffer, Solution pH 7.73): 170 µg/mL (≈ 0.398 mM) | solubility (aqueous solution, aqueous buffer, Solution pH 12.66): 180 µg/mL (≈ 0.421 mM) | solubility (aqueous solution, pH 4.9, aqueous buffer, Solution pH 4.90): 76400 µg/mL (≈ 179 mM)
